Test results published in US4725580A (Sanofi, priority 1985, dated 1988).
Starred links: 1 amine or outer side, 2 acyl side, 3 side chain; linkers in the order of their positions; H or OH if unused. Non-standard residues stand in square brackets, D forms with d. Residues, ends and D or L forms follow the SMILES beside them. *: point of attachment. Propanoyl(3-(3-pyridyl)) = O=C(CCc1cccnc1)*; Propanoyl(3-(4-pyridyl)) = O=C(CCc1ccncc1)*; Acetyl(pyridin-2-yl) = O=C(Cc1ccccn1)*; Sta = CC(C)C[C@H](N)[C@@H](O)CC(=O)O; Acetyl(3-pyridyl) = O=C(Cc1cccnc1)*; Acetyl(4-pyridyl) = O=C(Cc1ccncc1)*; X3 = O=C(CC1CCCN([*:1])C1)[*:2]; Nicotinoyl = O=C(c1cccnc1)*; X2 = O=C(CCC(=O)*)c1ccccn1; X6 = O=C(CCC(=O)*)c1cccnc1; X5 = O=C(CCC(O)c1ccccn1)*; X7 = O=C(CCC(O)c1cccnc1)*; Nle = CCCC[C@H](N)C(=O)O; X1 = O=C(CCCc1ccccn1)*; X8 = O=C(CCCc1cccnc1)*; Boc = CC(C)(C)OC(=O)*

Molecular target: T1, human plasma renin (Homo sapiens, UniProt P00797)
T1 construct: from tissue; host or cells: human plasma pool
T1 sequence (P00797 67-406): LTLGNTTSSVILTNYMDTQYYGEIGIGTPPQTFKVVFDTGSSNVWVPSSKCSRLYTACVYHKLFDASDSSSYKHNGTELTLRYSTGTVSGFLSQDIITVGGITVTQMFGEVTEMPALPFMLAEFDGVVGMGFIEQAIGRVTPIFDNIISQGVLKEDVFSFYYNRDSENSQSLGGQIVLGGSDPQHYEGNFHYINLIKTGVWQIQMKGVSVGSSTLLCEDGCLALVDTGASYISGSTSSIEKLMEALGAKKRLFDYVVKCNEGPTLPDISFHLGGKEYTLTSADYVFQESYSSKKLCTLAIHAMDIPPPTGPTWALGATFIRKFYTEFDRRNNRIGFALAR
Test: Inhibition of human plasma renin activity (PRA) in vitro, angiotensin I released measured by radioimmunoassay
Type: biochemical
Details: human plasma pool rich in renin, 60 minutes at 37° C., phosphate buffer pH 7.4; 5 to 10 doses; read-out: Inhibition of human PRA -log IC50 M pH 7.4 (converted)
Description: The products according to the invention were studied for their therapeutic properties and especially their inhibitory action on enzymes. More particularly, the compounds were evaluated "in vitro" in terms of their inhibition of human plasma renin activity (PRA).
Human plasma contains the substrate angiotensinogen and the enzyme renin. […] An inhibitor of the conversion enzyme, phenylmethylsulfonyl fluoride (PMSF), is added to the incubation medium.
420 microliters of human plasma
11 to 50 microliters of the product to be studied, at variable concentrations
A solution of acetic acid in methaol (19/1 by volume) and a solution of sodium hydroxide in methanol (2/1 by volume) are prepared. In a mixture of equal volumes of these 2 solutions, a 0.001M stock solution of the peptide is prepared. The subsequent dilutions of the peptide are then made up in the phosphate buffer.
The results are expressed by their logarithmic value (-log IC50).

SMILES	IC50 [nM]
CCCC[C@H](NC(=O)[C@H](Cc1ccccc1)NC(=O)CCC(=O)c1ccccn1)C(=O)N[C@@H](CC(C)C)[C@@H](O)CC(=O)N[C@@H](CC(C)C)C(=O)N[C@@H](Cc1ccccc1)C(=O)OC [SR 42793] (X2-F[Nle][Sta]LF-OMe)	891
CCCC[C@H](NC(=O)[C@H](Cc1ccccc1)NC(=O)c1cccnc1)C(=O)N[C@@H](CC(C)C)[C@@H](O)CC(=O)N[C@@H](C)C(=O)N[C@@H](CC(C)C)C(=O)OC [SR 42873, N-(Nicotinoyl)-Phe-Nle-Sta-Ala-Leu-OMe] (Nicotinoyl-F[Nle][Sta]AL-OMe)	81.3
CCCC[C@H](NC(=O)[C@H](Cc1ccccc1)NC(=O)CCC(O)c1ccccn1)C(=O)N[C@@H](CC(C)C)[C@@H](O)CC(=O)N[C@@H](CC(C)C)C(=O)N[C@@H](Cc1ccccc1)C(=O)OC (stereo partly shown) [SR 42991] (X5-F[Nle][Sta]LF-OMe)	58.9
CCCC[C@H](NC(=O)[C@H](Cc1ccccc1)NC(=O)CCC(=O)c1cccnc1)C(=O)N[C@@H](CC(C)C)[C@@H](O)CC(=O)N[C@@H](CC(C)C)C(=O)N[C@@H](Cc1ccccc1)C(=O)OC [SR 43108, N--(4-(pyridin-3-yl)-4-oxobutyryl)-Phe--Nle--Sta--Leu--Phe--OMe] (X6-F[Nle][Sta]LF-OMe)	447
CCCC[C@H](NC(=O)[C@H](Cc1ccccc1)NC(=O)CCC(O)c1cccnc1)C(=O)N[C@@H](CC(C)C)[C@@H](O)CC(=O)N[C@@H](CC(C)C)C(=O)N[C@@H](Cc1ccccc1)C(=O)OC (stereo partly drawn) [SR 43123, (R,S)--N--(4-(pyridin-3-yl)-4-hydroxybutyryl)-Phe--Nle--Sta--Leu--Phe--OMe] (X7-F[Nle][Sta]LF-OMe)	81.3
CCCC[C@H](NC(=O)[C@H](Cc1ccccc1)NC(=O)Cc1cccnc1)C(=O)N[C@@H](CC(C)C)[C@@H](O)CC(=O)N[C@@H](CC(C)C)C(=O)N[C@@H](Cc1ccccc1)C(=O)OC [SR 43282, N--(pyridin-3-ylacetyl)-Phe--Nle--Sta--Leu--Phe--OMe] ({Acetyl(3-pyridyl)}-F[Nle][Sta]LF-OMe)	79.4
CCCC[C@H](NC(=O)[C@H](Cc1ccccc1)NC(=O)Cc1ccccn1)C(=O)N[C@@H](CC(C)C)[C@@H](O)CC(=O)N[C@@H](CC(C)C)C(=O)N[C@@H](Cc1ccccc1)C(=O)OC [SR 43314, N--(pyridin-2-ylacetyl)-Phe--Nle--Sta--Leu--Phe--OMe] ({Acetyl(pyridin-2-yl)}-F[Nle][Sta]LF-OMe)	295
CCCC[C@H](NC(=O)[C@H](Cc1ccccc1)NC(=O)CCc1cccnc1)C(=O)N[C@@H](CC(C)C)[C@@H](O)CC(=O)N[C@@H](CC(C)C)C(=O)N[C@@H](Cc1ccccc1)C(=O)OC [SR 43454, N--(3-(pyridin-3-yl)propionyl)-Phe--Nle--Sta--Leu--Phe--OMe] ({Propanoyl(3-(3-pyridyl))}-F[Nle][Sta]LF-OMe)	67.6
CCCC[C@H](NC(=O)[C@H](Cc1ccccc1)NC(=O)CCCc1ccccn1)C(=O)N[C@@H](CC(C)C)[C@@H](O)CC(=O)N[C@@H](CC(C)C)C(=O)N[C@@H](Cc1ccccc1)C(=O)OC [SR 43484, N--(4-(pyridin-2-yl)butyryl)-Phe--Nle--Sta--Leu--Phe--OMe] (X1-F[Nle][Sta]LF-OMe)	100
CCCC[C@H](NC(=O)[C@H](Cc1ccccc1)NC(=O)CC1CCCN(C(=O)OC(C)(C)C)C1)C(=O)N[C@@H](CC(C)C)[C@@H](O)CC(=O)N[C@@H](CC(C)C)C(=O)N[C@@H](Cc1ccccc1)C(=O)OC (stereo partly shown) [SR 43519, N--(N--Boc--piperidin-3-ylacetyl)-Phe--Nle--Sta--Leu--Phe--OMe] (Boc-[X3]F[Nle][Sta]LF-OMe)	174
CCCC[C@H](NC(=O)[C@H](Cc1ccccc1)NC(=O)CCc1ccncc1)C(=O)N[C@@H](CC(C)C)[C@@H](O)CC(=O)N[C@@H](CC(C)C)C(=O)N[C@@H](Cc1ccccc1)C(=O)OC [SR 43633, N--(3-(pyridin-4-yl)propionyl)-Phe--Nle--Sta--Leu--Phe--OMe] ({Propanoyl(3-(4-pyridyl))}-F[Nle][Sta]LF-OMe)	204
CCCC[C@H](NC(=O)[C@H](Cc1ccccc1)NC(=O)Cc1ccncc1)C(=O)N[C@@H](CC(C)C)[C@@H](O)CC(=O)N[C@@H](CC(C)C)C(=O)N[C@@H](Cc1ccccc1)C(=O)OC [SR 43781, N--(pyridin-4-ylacetyl)-Phe--Nle--Sta--Leu--Phe--OMe] ({Acetyl(4-pyridyl)}-F[Nle][Sta]LF-OMe)	132
CCCC[C@H](NC(=O)[C@H](Cc1ccccc1)NC(=O)CCCc1cccnc1)C(=O)N[C@@H](CC(C)C)[C@@H](O)CC(=O)N[C@@H](CC(C)C)C(=O)N[C@@H](Cc1ccccc1)C(=O)OC [SR 43782, N--(4-(pyridin-3-yl)butyryl)-Phe--Nle--Sta--Leu--Phe--OMe] (X8-F[Nle][Sta]LF-OMe)	41.7
